# Experimental data from patent EP0641797A1, “Cephem derivatives and antimicrobial agents containing the same” (KATAYAMA SEIYAKUSYO CO. Ltd., priority 1993, dated 1995).
# Like-named read-outs stand apart in the source and are kept apart here.
# Columns and labels:
# Experiment in all cases: MIC on standard strains, standard method of Japan Society of Chemotherapy
# Assay type in all cases: cell-based
# [1] = system: P. cepacia
# Description: (§1) Antimicrobial activity of the compounds of the present invention were measured using CTM (cefotiam) and FMOX (flomoxef) as control drugs in accordance with the standard method of Japan Society of Chemotherapy. Of the 25 standard strains used in this test, Staphylococcus aureus 167 and Staphylococcus aureus 195 belong to MRSA.
# (§2) In these tables, drugs tested are shown by the corresponding examples in which they were synthesized.
# [2] = system: E. cloacae ATCC 13407
# Description: as §1, §2
# [3] = system: E. coli CSH2(RE45); conditions: Escherichia coli
# Description: as §1, §2
# [4] = system: S. aureus 195; conditions: Staphylococcus aureus; S. aureus 195 (MRSA)
# Description: as §1, §2
# [5] = system: B. subtilis ATCC 6633
# Description: as §1, §2
# [6] = system: S. aureus 209p JC-1; conditions: Staphylococcus aureus, 209P, read-out: MIC
# Description: as §1, §2
# [7] = system: K. pneuminiae IFO 3317
# Description: as §1, §2
# [8] = system: A. calcoaceticos T59
# Description: as §1, §2
# [9] = system: S. epidemidis IAM 1296
# Description: as §1, §2
# [10] = system: P. mirabilis IFO 3849
# Description: as §1, §2
# [11] = system: S. marcescens No. 16-2; conditions: Serratia marcescens, NO.162
# Description: as §1, §2
# [12] = system: P. aeruginosa AKR17; conditions: Pseudomonas aeruginosa
# Description: as §1, §2
# [13] = system: P. vulugaris OX-19
# Description: as §1, §2
# [14] = system: E. cloacae Nek39
# Description: as §1, §2
# [15] = system: M. luteus ATCC 9341; conditions: Micrococcus luteus, ATCC9341
# Description: as §1, §2
# [16] = system: E. coli CSH2(RK1); conditions: Escherichia coli
# Description: as §1, §2
# [17] = system: S. marcescens IAM 1184; conditions: Serratia marcescens, IAM1184, S. marcescens IAM 1184; read-out: MIC
# Description: as §1, §2
# [18] = system: S. aureus Smith; conditions: Staphylococcus aureus, read-out: MIC
# Description: as §1, §2
# [19] = system: S. aureus 167; conditions: Staphylococcus aureus; S. aureus 167 (MRSA)
# Description: as §1, §2
# [20] = system: C. freundii ATCC 8090
# Description: as §1, §2
# [21] = system: A. faecalis ATCC 3750; conditions: Alcaligenes faecalis, ATCC3750, A. faecalis ATCC 3750; read-out: MIC
# Description: as §1, §2
# [22] = system: M. morganii IFO 3848; conditions: Morganella morganii, IFO3848
# Description: as §1, §2
# [23] = system: K. pneuminiae No. 42
# Description: as §1, §2
# [24] = system: E. coli NHIJ JC-2; conditions: Escherichia coli, NHIJJC2
# Description: as §1, §2
# [25] = system: P. aeruginosa NCTC 10490; conditions: Pseudomonas aeruginosa, NCTC10490, P. aeruginosa NCTC 10490; read-out: MIC
# Description: as §1, §2
# [26] = Burkholderia cepacia, read-out: MIC
# [27] = Enterobacter cloacae, ATCC13407, E. cloacae ATCC 13407, read-out: MIC
# [28] = Bacillus subtilis, ATCC6633, B. subtilis ATCC 6633, read-out: MIC
# [29] = Proteus mirabilis, IFO3849, P. mirabilis IFO 3849, read-out: MIC
# [30] = Enterobacter cloacae, NEK39, E. cloacae Nek39, read-out: MIC
# [31] = Citrobacter freundii, ATCC8090, C. freundii ATCC 8090, read-out: MIC
Compound,"MIC [1, 26] [µg/mL]","MIC [2, 27] [µg/mL]",MIC [3] [µg/mL],MIC [4] [µg/mL],"MIC [5, 28] [µg/mL]",MIC [6] [µg/mL],MIC [7] [µg/mL],MIC ([8]; read-out: MIC) [µg/mL],MIC [9] [µg/mL],"MIC [10, 29] [µg/mL]",MIC [11] [µg/mL],MIC [12] [µg/mL],MIC [13] [µg/mL],"MIC [14, 30] [µg/mL]",MIC [15] [µg/mL],MIC [16] [µg/mL],MIC [17] [µg/mL],MIC [18] [µg/mL],MIC [19] [µg/mL],"MIC [20, 31] [µg/mL]",also measured
"NC(=NO)c1cc[n+](CC2=C(C(=O)[O-])N3C(=O)[C@@H](NC(=O)/C(=N\O)c4csc(N)n4)[C@H]3SC2)cc1 [Ex. 20, 7β-[2-(2-aminothiazol-4-yl)-2-syn-hydroxyiminoacetamido]-3-[4-(1-amino-1-hydroxyiminomethyl)pyridinio]methyl-3-cephem-4-carboxylate]",> 100,12.5,0.2,3.31,0.2,0.2,0.1,6.25,0.05,0.2,100,> 100,0.2,50,0.025,0.39,0.1,0.39,6.25,0.2,MIC [21]: 0.78 µg/mL; MIC [22]: 0.1 µg/mL; MIC [23]: 0.39 µg/mL; MIC [24]: 0.2 µg/mL; MIC [25]: 0.78 µg/mL
"Nc1nc(/C(=N/O)C(=O)N[C@@H]2C(=O)N3C(C(=O)[O-])=C(C[n+]4ccc(-c5nccs5)cc4)CS[C@H]23)cs1 [Ex. 21, 7β-[2-(2-aminothiazol-4-yl)-2-syn-hydroxyiminoacetamido]-3-[4-(thiazol-2-yl)pyridinio]methyl-3-cephem-4-carboxylate]",> 100,1.56,0.1,1.56,0.2,0.2,0.1,12.5,0.1,0.2,50,> 100,0.1,50,0.025,0.2,0.1,0.39,3.13,0.1,MIC [21]: 0.78 µg/mL; MIC [22]: 0.05 µg/mL; MIC [23]: 0.2 µg/mL; MIC [24]: 0.1 µg/mL; MIC [25]: 6.25 µg/mL
"Nc1nc(/C(=N/O)C(=O)N[C@@H]2C(=O)N3C(C(=O)[O-])=C(C[n+]4cccc(-c5nsc(N)n5)c4)CS[C@H]23)cs1 [Ex. 12, 7β-[2-(2-aminothiazol-4-yl)-2-syn-hydroxyiminoacetamido]-3-[3-(5-amino-1,2,4-thiadiazol-3-yl)pyridinio]methyl-3-cephem-4-carboxylate]",> 100,3.13,0.39,1.56,0.2,0.2,0.2,12.5,0.05,0.39,100,> 100,0.39,100,0.025,0.78,0.78,0.39,6.25,0.39,MIC [21]: 1.56 µg/mL; MIC [22]: 0.1 µg/mL; MIC [23]: 0.78 µg/mL; MIC [24]: 0.39 µg/mL; MIC [25]: 6.25 µg/mL
"Nc1nc(/C(=N/O)C(=O)N[C@@H]2C(=O)N3C(C(=O)[O-])=C(C[n+]4ccc(-c5cncs5)cc4)CS[C@H]23)cs1 [Ex. 22, 7β-[2-(2-aminothiazol-4-yl)-2-syn-hydroxyiminoacetamido]-3-[4-(thiazol-5-yl)pyridinio]methyl-3-cephem-4-carboxylate]",> 100,0.78,0.1,0.78,0.2,0.2,0.05,12.5,0.1,0.1,25,> 100,0.1,25,0.025,0.2,0.1,0.2,1.56,0.1,MIC [21]: 1.56 µg/mL; MIC [22]: 0.025 µg/mL; MIC [23]: 0.1 µg/mL; MIC [24]: 0.1 µg/mL; MIC [25]: 3.13 µg/mL
"NC(=O)Nc1ccc[n+](CC2=C(C(=O)[O-])N3C(=O)[C@@H](NC(=O)/C(=N\O)c4nsc(N)n4)[C@H]3SC2)c1 [Ex. 2, 7β-[2-(5-amino-1,2,4-thiadiazol-3-yl)-2-syn-hydroxyiminoacetamido]-3-(3-ureidopyridinio)methyl-3-cephem-4-carboxylate]",> 100,6.25,0.78,3.13,0.39,0.39,0.39,1.56,0.2,1.56,100,> 100,1.56,100,0.05,1.56,0.39,0.78,6.25,0.78,MIC [21]: 3.13 µg/mL; MIC [22]: 0.78 µg/mL; MIC [23]: 0.78 µg/mL; MIC [24]: 0.78 µg/mL; MIC [25]: 0.78 µg/mL
"CO[C@@]1(NC(=O)CSC(F)F)C(=O)N2C(C(=O)O)=C(CSc3nnnn3CCO)CO[C@@H]21 [FMOX, flomoxef, reference compound]",50,50,0.1,3.13,0.39,0.39,0.05,> 100,0.2,0.39,100,> 100,0.39,> 100,0.1,0.1,0.2,0.39,50,0.39,MIC [1]: 100 µg/mL; MIC ([2]; E. cloacae ATCC 13407): 100 µg/mL; MIC ([5]; B. subtilis ATCC 6633): 0.2 µg/mL; MIC [8]: 100 µg/mL; MIC ([10]; P. mirabilis IFO 3849): 0.2 µg/mL; MIC ([14]; E. cloacae Nek39): 100 µg/mL; MIC ([20]; C. freundii ATCC 8090): 0.2 µg/mL; MIC [21]: 0.1 µg/mL; MIC [22]: 0.39 µg/mL; MIC [23]: 0.1 µg/mL; MIC [24]: 0.1 µg/mL; MIC [25]: > 100 µg/mL
"Nc1nc(/C(=N/O)C(=O)N[C@@H]2C(=O)N3C(C(=O)[O-])=C(C[n+]4ccc(-c5nnco5)cc4)CS[C@H]23)cs1 [Ex. 18, 7β-[2-(2-aminothiazol-4-yl)-2-syn-hydroxyiminoacetsmido]-3-[4-(1,3,4-oxadiazol-2-yl)pyridinio]methyl-3-cephem-4-carboxylate]",> 100,50,0.39,12.5,0.78,0.78,0.2,25,0.39,0.2,> 100,> 100,0.2,> 100,0.2,6.25,0.39,1.56,25,0.39,MIC [21]: 1.56 µg/mL; MIC [22]: 0.05 µg/mL; MIC [23]: 1.56 µg/mL; MIC [24]: 0.2 µg/mL; MIC [25]: 12.5 µg/mL
"Nc1nc(/C(=N/O)C(=O)N[C@@H]2C(=O)N3C(C(=O)[O-])=C(C[n+]4ccc(-c5ncon5)cc4)CS[C@H]23)cs1 [Ex. 17, 7β-[2-(2-aminothiazol-4-yl)-2-syn-hydroxyiminoacetamido]-3-[4-(1,2,4-oxadiazol-3-yl)pyridinio]methyl-3-cephem-4-carboxylate]",> 100,6.25,0.78,3.13,0.39,0.39,0.39,12.5,0.2,0.39,> 100,> 100,0.39,50,0.1,0.78,0.39,0.78,6.25,0.39,MIC [21]: 3.13 µg/mL; MIC [22]: 0.2 µg/mL; MIC [23]: 0.78 µg/mL; MIC [24]: 0.39 µg/mL; MIC [25]: 3.13 µg/mL
